Test results as given in patent publication US20090253704A1, “PYRROLOTRIAZINONE DERIVATIVES FOR USE AS STEAROYL CoA DESATURASE INHIBITORS” (priority 2008, published 2009).
pIC50: −log10 of the molar value.

target: T1, Stearoyl-CoA desaturase (SCD) (Rattus norvegicus, UniProt P07308); assay: SCD assay in rat liver microsomes ([3H]stearoyl CoA desaturation, adapted from Talamo and Bloch); assay type: biochemical; conditions: rat liver microsomes 0.2 mg/ml final, 30 min preincubation, 45 min reaction at room temperature
T1 construct: from tissue; host or cells: liver microsomes of male Sprague Dawley rats, SCD induced by carbohydrate-rich diet
T1 sequence (P07308 1-358): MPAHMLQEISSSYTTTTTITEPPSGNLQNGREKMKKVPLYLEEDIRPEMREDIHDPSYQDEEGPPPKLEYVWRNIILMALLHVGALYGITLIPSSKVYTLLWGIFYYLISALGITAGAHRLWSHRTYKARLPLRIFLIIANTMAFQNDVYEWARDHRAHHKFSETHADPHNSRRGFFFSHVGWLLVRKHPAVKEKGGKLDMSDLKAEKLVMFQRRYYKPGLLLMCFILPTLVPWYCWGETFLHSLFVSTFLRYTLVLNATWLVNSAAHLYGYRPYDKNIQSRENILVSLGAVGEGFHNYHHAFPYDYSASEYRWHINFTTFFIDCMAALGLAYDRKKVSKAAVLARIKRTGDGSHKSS
From the text: The identification of compounds of the invention as SCD inhibitors was readily accomplished using the SCD enzyme and microsomal assay procedure described in Talamo and Bloch (1969) Analytical Biochemistry 29:300-304.
The rat liver microsomes were collected according to the procedure described in Ozols (1990) Methods Enzm, 182:225.
Male Spraque Dawley Rats were placed on regimented fasting protocol for one week to stimulate SCD enzymatic activity. 48-hour periods were alternated between feeding and fasting to induce and down-regulate SCD activity with SCD activity being induced via carbohydrate rich diet prior to liver perfusion and collection.
The rats were anesthetized with Isoflurane inhalation anesthetic, the liver perfused with cold phosphate buffered saline (PBS), weighed, and chilled in cold homogenization buffer (250 mM sucrose, 10 mM Tris, 1 mM EDTA, pH 7.6).
The livers were finely minced and placed in homogenization tube. Homogenization buffer (40 mL) was added to the homogenization tube and the liver homogenized and centrifuged in a pre-chilled […] for 10 min at 4° C.
Following centrifugation, the supernatant was collected and the pellet removed and discarded. The supernatant was centrifuge at 10,000 G for 35 minutes. Following centrifugation, the supernatant was collect and the pellet discarded. The supernatant was then centrifuged in a pre-chilled 45-Ti rotor at 130,000 G (41,000 RPM) for 90 minutes at 4° C.
The supernatant was then aspirated off and the collected microsomal pellet washed in 25 mL of Glycerol PBS (1×PBS 7.4, 20% Glycerol) and resuspended in 4-5 volumes of Glycerol PBS.
The protein concentration of the microsomal preparation was determined by BCA assay (Pierce) and the microsomes were aliquoted and stored at −80° C.
Biobeads were ground to a smaller size in a mortar and pestle and resuspended in 3.6% TCA. The beads were then filtered through […] mesh.
SCD was determined in the desaturase assay buffer. This assay buffer contained 0.1 M Tris buffer, pH 7.2, 2 mM NADH, 4.8 mM ATP, 0.5 mM CoA, 4.8 mM MgCl2, and 0.1% BSA.
The Procedure for the SCD Assay (Adapted from Talamo and Bloch (1969) Analytical Biochemistry 29:300-304)
1 μl of each compound of Formula I was added to an assay plate by a low volume (0.5-10 μL) multichannel pipette. A DMSO control was also prepared. The microsomes were quickly thawed and added to assay buffer so that a concentration of 0.4 mg/ml was achieved (0.2 mg/ml assay final). 50 μl of the microsome suspension in assay buffer was then added into each well in the compound assay plate, the plate was covered, and the microsomes preincubated with the compounds for 30 minutes on the orbital shaker, 50-75 rpm, at room temperature.
After preincubation, the reaction was initiated by the addition of 50 μl of substrate solution (20 μM Stearoyl CoA, [3H]Stearoyl CoA, 74 nCi) to the preincubated microsomes/compound suspensions in MilliQ (Millipore) H2O. The reaction mixtures were then incubated for 45 minutes on the orbital shaker at 50-75 rpm at room temperature.
The reaction was terminated by the addition of 10 μl of 21% trichloroacetic acid (TCA) to the reaction mixture followed incubation on the orbital shaker for 30 minutes at 50-75 rpm at room temperature followed by centrifugation for 5 minutes at 3700 rpm.
50 μl of a 6% Bio-Bead suspension in H2O was added to the reaction mixture and the assay plate was sealed. The Bio-Bead mixture was incubated on the orbital shaker for 1 hour, 100-150 rpm at room temperature, and then the mixture was centrifuged at 2000 g for 5 minutes to pellet the Bio-Beads.
25 μl of the supernatant was harvested from each well and transferred to a detection plate. 100 μl of OptiPhase SuperMix scintillation cocktail (containing sufficient NaOH to neutralize the TCA) was added and the solutions mixed by vigorous shaking (300-400 rpm) for 5 minutes at room temperature.

SMILES | pIC50
O=C(CO)Nc1cc2c(=O)n(CCc3ccc(Cl)cc3)cnn2c1 [N-(3-(4-chlorophenethyl)-4-oxo-3,4-dihydropyrrolo[1,2-f][1,2,4]triazin-6-yl)-2-hydroxyacetamide] | 4.85
O=C(CO)Nc1cc2c(=O)n(CCCOc3cc(Cl)ccc3Cl)cnn2c1 [N-(3-(3-(2,5-dichlorophenoxy)propyl)-4-oxo-3,4-dihydropyrrolo[1,2-f][1,2,4]triazin-6-yl)-2-hydroxyacetamide] | 6.62
O=C(Nc1cc2c(=O)n(CCc3ccc(Cl)cc3)cnn2c1)C(O)CO (stereo not drawn) [N-(3-(4-chlorophenethyl)-4-oxo-3,4-dihydropyrrolo[1,2-f][1,2,4]triazin-6-yl)-2,3-dihydroxypropanamide] | 6.08
O=C(CO)Nc1cc2c(=O)n(Cc3ccc(Cl)c(C(F)(F)F)c3)cnn2c1 [N-(3-(4-chloro-3-(trifluoromethyl)benzyl)-4-oxo-3,4-dihydropyrrolo[1,2-f][1,2,4]triazin-6-yl)-2-hydroxyacetamide] | 6.49

Further lines, results first:

pIC50 | SMILES
5.80 | O=C(Nc1cc2c(=O)n(Cc3ccc(Cl)c(Cl)c3)cnn2c1)OCc1ccccc1 [benzyl 3-(3,4-dichlorobenzyl)-4-oxo-3,4-dihydropyrrolo[1,2-f][1,2,4]triazin-6-ylcarbamate]
4.57 | CCCCCCC(=O)Nc1cc2c(=O)n(Cc3ccc(Cl)c(Cl)c3)cnn2c1 [N-(3-(3,4-dichlorobenzyl)-4-oxo-3,4-dihydropyrrolo[1,2-f][1,2,4]triazin-6-yl)heptanamide]
8.00 | O=C(Nc1cc2c(=O)n(Cc3ccc(Cl)c(Cl)c3)cnn2c1)C(O)CO (stereo not drawn) [N-(3-(3,4-dichlorobenzyl)-4-oxo-3,4-dihydropyrrolo[1,2-f][1,2,4]triazin-6-yl)-2,3-dihydroxypropanamide]
5.25 | O=C(CO)Nc1cc2c(=O)n(CCOc3ccccc3Cl)cnn2c1 [N-(3-(2-(2-chlorophenoxy)ethyl)-4-oxo-3,4-dihydropyrrolo[1,2-f][1,2,4]triazin-6-yl)-2-hydroxyacetamide]
6.60 | O=C(CO)Nc1cc2c(=O)n(Cc3ccc(Cl)c(Cl)c3)cnn2c1 [N-(3-(3,4-dichlorobenzyl)-4-oxo-3,4-dihydropyrrolo[1,2-f][1,2,4]triazin-6-yl)-2-hydroxyacetamide]
